Source: patent US10231956B2, “3-(1H-pyrrolo[3,2-C]pyridin-2-YL)-1 H-pyrazolo[4,3-B]pyridines and therapeutic uses thereof” (Samumed, LLC, priority 2015, dated 2019)

Legend:
Format in all cases: cell-based
[1] = test system: Wnt activity (Sp5-Luc reporter, SW480 colon carcinoma cells); experiment: Sp5-Luc reporter gene screening assay for Wnt activity in SW480 cells; details: Homo sapiens, luminescence, overnight incubation
Source text: The screening assay for Wnt activity is described as follows. Reporter cell lines can be generated by stably transducing cancer cell lines (e.g., colon cancer) or primary cells (e.g., IEC-6 intestinal cells) with a lentiviral construct that includes a Wnt-responsive promoter driving expression of the firefly luciferase gene.
SW480 colon carcinoma cells were transduced with a lentiviral vector expressing luciferase with a human Sp5 promoter consisting of a sequence of eight TCF/LEF binding sites. SW480 cells stably expressing the Sp5-Luc reporter gene and a hygromycin resistance gene were selected by treatment with 150 μg/mL of hygromycin for 7 days. These stably transduced SW480 cells were expanded in cell culture and used for all further screening activities. Each compound was dissolved in DMSO as a 10 mM stock and used to prepare compound source plates. Serial dilution (1:3, 10-point dose-response curves starting from 10 μM) and compound transfer was performed using the ECHO 550 (Labcyte, Sunnyvale, Calif.) into 384-well white solid bottom assay plates (Greiner Bio-One) with appropriate DMSO backfill for a final DMSO concentration of 0.1%. For Sp5-Luc reporter gene assays, the cells were plated at 4,000 cells/well in 384-well plates with medium containing 1% fetal bovine serum and incubated overnight at 37° C. and 5% CO2. Following incubation, 20 μl of BrightGlo luminescence reagent (Promega) was added to each well of the 384-well assay plates. The plates were placed on an orbital shaker for 2 min and then luminescence was quantified using the Envision (Perkin Elmer) plate reader. Readings were normalized to DMSO only treated cells, and normalized activities were utilized for EC50 calculations using the dose-response log (inhibitor) vs. response-variable slope (four parameters) nonlinear regression feature available in GraphPad Prism 5.0 (or Dotmatics). For EC50 of >10 μM, the percent inhibition at 10 μM is provided.

SW480 colon cancer cells = experiment: Cell viability assay (CellTiter-Blue) in SW480 colon cancer cells; details: Homo sapiens, 96 h, four days, CellTiter-Blue
Protocol: Representative compounds were screened using the following assay procedure to assess the effect on cell viability as described below.
Each compound was dissolved in DMSO as a 10 mM stock and used to prepare compound source plates. Serial dilution (1:3, 8-point dose-response curves from 10 μM to 0.0045 μM) and compound transfer was performed using the ECHO 550 (Labcyte, Sunnyvale, Calif.) into 96-well clear bottom, black-walled plates (Corning-Costar).
Approximately 2×10^3 SW480 colon cancer cells were seeded into each well and allowed to incubate in the presence or absence of compound for four days at 37° C./5% CO2. Eight replicates of DMSO-treated cells served as controls and cells treated with compound were performed in duplicate.
After incubation, 20 μL of CellTiter-Blue (Promega) was added to each well allowed to incubate for approximately 3 hours. This reagent was a buffered solution which contains resazurin, metabolically active cells were able to reduce rezarurin (blue) into resorufin (pink) which was highly fluorescent. This measured fluorescence was used as a readout for cell viability.
After incubation, the plates were read at Ex 560 nm Em 590 nm (Cytation 3, BioTek). Dose-response curves were generated and EC50 concentration values were calculated using non-linear regression curve fit in the GraphPad Prism (San Diego, Calif.) or Dotmatics' Studies Software (Bishops Stortford, UK). For EC50 of >10 μM, the percent inhibition at 10 μM is provided.

[2] = test system: primary human fibroblasts derived from IPF patients (LL29 cells); experiment: Inhibition of fibrotic process: αSMA staining in TGF-β1 treated LL29 fibroblasts; details: Fibroblast, 96 h, TGF-β1 20 ng/mL, 4 days, % cells positive for αSMA
Source text: Representative compounds were screened using primary human fibroblasts (derived from IPF patients) treated with TGF-β1 to determine their ability to inhibit the fibrotic process.
Human Fibroblast Cell Culture: Primary human fibroblasts derived from IPF patients (LL29 cells) [^1Xiaoqiu Liu, et. al., “Fibrotic Lung Fibroblasts Show Blunted Inhibition by cAMP Due to Deficient cAMP Response Element-Binding Protein Phosphorylation”, Journal of Pharmacology and Experimental Therapeutics (2005), 315(2), 678-687; ^2Watts, K. L., et. al., “RhoA signaling modulates cyclin D1 expression in human lung fibroblasts; implications for idiopathic pulmonary fibrosis”, Respiratory Research (2006), 7(1), 88] were obtained from American Type Culture Collection (ATCC) and expanded in F12 medium supplemented with 15% Fetal Bovine Serum and Penicillin/Streptomycin.
Compound Screening: Each compound was dissolved in DMSO as a 10 mM stock and used to prepare compound source plates. Serial dilution (1:2, 11-point dose-response curves from […]) and compound transfer was performed using the ECHO 550 (Labcyte, Sunnyvale, Calif.) into 384-well clear bottom assay plates (Greiner Bio-One) with appropriate DMSO backfill for a final DMSO concentration of 0.1%. LL29 cells are plated at 1,500 cells/well in 80 μL/well F12 medium supplemented with 1% Fetal Bovine Serum. One hour after addition of the cells, TGF-β1 (Peprotech; 20 ng/mL) was added to the plates to induce fibrosis (ref. 1 and 2 above). Wells treated with TGF-β1 and containing DMSO were used as controls. Cells were incubated at 37° C. and 5% CO2 for 4 days. Following incubation for 4 days, SYTOX green nucleic acid stain (Life Technologies [Thermo Fisher Scientific]) was added to the wells at a final concentration of 1 μM and incubated at room temperature for 30 min. Cells were then fixed using 4% formaldehyde (Electron Microscopy Sciences), washed 3 times with PBS followed by blocking and permeabilization using 3% Bovine Serum Albumin (BSA; Sigma) and 0.3% Triton X-100 (Sigma) in PBS. Cells were then stained with antibody specific to α-smooth muscle actin (αSMA; Abcam) (ref. 1 and 2 above) in 3% Bovine Serum Albumin (BSA; Sigma) and 0.3% Triton X-100 (Sigma) in PBS, and incubated overnight at 4° C. Cells were then washed 3 times with PBS, followed by incubation with Alexa Flor-647 conjugated secondary antibody (Life Technologies [Thermo Fisher Scientific]) and DAPI at room temperature for 1 hour. Cells were then washed 3 times with PBS and plates were sealed for imaging. αSMA staining was imaged by excitation at 630 nm and emission at 665 nm and quantified using the Compartmental Analysis program on the CellInsight CX5 (Thermo Scientific). Dead or apoptotic cells were excluded from analysis based on positive SYTOX green staining. % of total cells positive for αSMA were counted in each well and normalized to the average of 11 wells treated with TGF-β1 on the same plate using Dotmatics' Studies Software. The normalized averages (fold change over untreated) of 3 replicate wells for each compound concentration were used to create dose-responses curves and EC50 values were calculated using non-linear regression curve fit in the Dotmatics' Studies Software. For EC50 of >10 μM, the percent inhibition at 10 μM is provided.

IL-6 = IL-6 inhibition in LPS-stimulated THP-1 cells (HTRF); details: Homo sapiens, LPS 500 ng/mL, 22 hours, IL6 HTRF
Protocol: Human Monocyte Cell Culture: Human monocyte cell line (THP-1 cells; Catalog # TIB-202, ATCC, Manassas, Va.) were cultured in Roswell Park Memorial Institute (RPMI) 1640 Medium (Catalog #21870-100, Buffalo, N.Y.) with 1% L-glutamine, 1% HEPES, 1% Sodium Pyruvate, 2% Sodium Bicarbonate supplemented with 100 units/mL penicillin, 50 μg/mL streptomycin, 2-mercaptoethanol (0.05 mM) [basal medium] and 10% fetal bovine serum (Catalog #16140089, Life Technologies, Carlsbad, Calif.) at 37° C. and 5% CO2.
Compound Screening: THP-1 cells were cultured in basal media with 1% FBS for 24 hours before the start of the assay. Each compound was dissolved in DMSO as a 10 mM stock and used to prepare compound source plates. Serial dilution (1:3, 10-point dose-response curves starting from 1 μM) and compound transfer was performed using the ECHO 550 (Labcyte, Sunnyvale, Calif.) into 384-well white low volume assay plates (Greiner Bio-One) with appropriate DMSO backfill for a final DMSO concentration of 0.1%. THP-1 cells were plated at 5000 cells/well in the 384-well plates and incubated at 37° C. for 2 h. 500 ng/mL of LPS was added after 2 hours and cells were incubated for another 22 hours at 37° C. Plates were spun in a centrifuge for 1 minute at 10,000 rpm and a mixture of anti-IL6 XL665, and anti-IL6 Cryptate diluted in reconstitution buffer (Cisbio Inc.) was added to each well. Following incubation for 3 hrs at room temperature, Homogeneous Time-Resolved Fluorescence (HTRF) was measured using the Envision (Perkin Elmer) at 665 nm and […]. The ratio of fluorescence at 665 nm to 620 nm was used as a readout for IL6 quantification. All samples were processed in duplicate. Readings were normalized to DMSO treated cells and normalized activities were utilized for EC50 calculations using the dose-response log (inhibitor) vs. response-variable slope (four parameters) nonlinear regression feature available in GraphPad Prism 5.0 (or Dotmatics). For EC50 of >10 μM, the percent inhibition at 10 μM is provided.

For `Oc1cncc(-c2ccc3[nH]nc(-c4cc5c(-c6cccs6)nccc5[nH]4)c3n2)c1` [Compound 709, 5-(3-(4-(Thiophen-2-yl)-1H-pyrrolo[3,2-c]pyridin-2-yl)-1H-pyrazolo[4,3-b]pyridin-5-yl)pyridin-3-ol], the EC50 [1] was 0.15 µM, the EC50 (SW480 colon cancer cells) was 0.457 µM and the EC50 [2] was 0.034 µM. The EC50 (IL-6) was 1.79 µM.
